According to US8598348B2, “Purification of 1-[2-(2,4-dimethylphenylsulfanyl)phenyl]piperazine” (H. Lundbeck A/S, priority 2009, dated 2013):
Structures can show the parent of a compound that is named as a salt.

Key:
Solubility in water = format: physicochemical
[1] = judged from DSC and solubility data; as shown in WO 2007/144005; cited from earlier work
[2] = Water absorption when exposed to high relative humidity; format: physicochemical

## Cc1ccc(Sc2ccccc2N2CCNCC2)c(C)c1 [beta form of the hydrobromide, 1-[2-(2,4-dimethylphenylsulfanyl)phenyl]piperazine-HBr]
Solubility in water
  solubility: 1200 µg/mL
[1]
  stability among the α-, β- and γ-forms of the HBr salt: most stable form
[2]
  absorption of water when exposed to high relative humidity: about 0.6%
